Test results reported in patent publication US12640054B2, “Computational in silico model for placental barrier” (CFD Research Corporation, priority 2022, dated 2026).
Structures can show the parent of a compound that is named as a salt.

Legend:
[1] = system: in vitro placenta device (coculture of Bewo trophoblasts and HUVEC); test: Maternal-placental size exclusion (permeability index) in the in vitro placenta device; format: in vitro ADME, human; conditions: injected into the maternal vascular channel at 0.1 μL/min for 1 hour; FIG. 9B
Method: Again, devices can be placed in the incubator.
In another example, one embodiment of the present invention was used to evaluate maternal-placental size exclusion, where a fluorescein sodium salt (FSS) solution was injected into the maternal vascular channel at 0.1 μL/min for 1 hour. […] PI was expected to decrease as a function of compound molecular weight.

[2] = system: intervillous space - trophoblast barrier; test: Morphological effects of toxic exposure in the in vitro placenta device; format: cell-based; conditions: injected into the maternal channel at 3 μL/min for 4 min, incubated at 37° C. for 15 min; FIG. 10
Text: In some embodiments, the in vitro placental model device can be used for studying toxicity of test agents to the placenta. Certain compounds not only induce fetal toxicity upon crossing the placental barrier, but also disrupt the barrier itself. The microfluidic placental barrier model can be used to study response to toxic exposure of test agents. The impact to barrier function can be assessed through permeability comparisons and toxicity (e.g., cytotoxicity, etc.) can be assessed off chip by various methods (e.g., cell lysate luminescence assay, genomic analysis, etc.).
For example, an in vitro placenta device was exposed to trypan blue by injection into the maternal channel at 3 μL/min for 4 min and then incubated at 37° C. for 15 min, similar to protocols in literature^7,8. […] White arrows show barrier degradation, and dark arrows show apoptosis following trypan blue exposure.

[3] = system: trophoblast channel; test: Cytotoxicity by adenylate kinase release (luminescence); format: cell-based; conditions: samples from the trophoblast channel; FIG. 11
Method: Following exposure, FSS was injected into the maternal channel and permeability assayed. Permeability in the devices was 10-fold higher in trypan blue treated devices compared to controls. An additional assay was performed to determine cytotoxicity as it relates to the release of adenylate kinase. A positive control (100% death by lysis buffer) and a negative control (media only) were included for comparison. Samples were taken from the trophoblast channel and placed in a low volume, white walled […] plate for luminescence analysis using a plate reader. […] The increase in AK release in arbitrary luminescence units compares the toxic exposure of trypan blue to positive and negative controls.

increase in average PI compared to 4 kD TRITC-dextran [1] [fold] | SMILES | morphological effects of exposure [2] | increase in adenylate kinase release [3] [fold]
~2 | O=C1OC2(c3ccc(O)cc3Oc3cc(O)ccc32)c2ccccc21 [FSS, fluorescein sodium salt] |  | 
 | Cc1cc(-c2ccc(/N=N/c3c(S(=O)(=O)O)cc4cc(S(=O)(=O)O)cc(N)c4c3O)c(C)c2)ccc1/N=N/c1c(S(=O)(=O)O)cc2cc(S(=O)(=O)O)cc(N)c2c1O [trypan blue] | barrier degradation (e.g., cell death and detachment) and apoptosis | 1.5
